Data set [1] has as its system MC3T3 osteoblast cells (non-tumor). Put plainly: Cell viability assay (MTT), dark and blue light. It is filed as cell-based, Murine. Particulars: for Photosensitizing index (PI): MC3T3, dark vs blue light. The method in brief:
(§1)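 MTT read-out at 570 nm after DMSO solubilization of formazan, 3–4 h MTT at 37 °C, 5% CO2. Treatment lasted 72 h, either fully in the dark or with 10 min irradiation after 8 h of dark incubation. Final DMSO fixed at 0.1% (v/v).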

For data set [2], the system named is NIH-3T3 fibroblast cells (non-tumor). The data set can be described thus: Cell viability assay (MTT), dark and blue light. The format is cell-based, Murine. Particulars: for Photosensitizing index (PI): NIH-3T3, dark vs blue light. The method in brief:
as §1

Data set [3] is described as follows: UV/Vis absorption spectra. Particulars: room temperature, air-saturated CH2Cl2 or CH2Cl2/MeOH (1:1), 50 μM; ε in brackets, sh = shoulder. The format is physicochemical. On the procedure: UV/Vis absorption spectra were recorded at RT on solutions contained in quartz cuvettes (optical pathlength 1 cm, Hellma®) with a PerkinElmer® UV/VIS/NIR spectrophotometer Lambda 950 and a PerkinElmer® detector UV/VIS/NIR Accessory 2D Detector Module.

Data set [4] can be described thus: Lipophilicity: octanol-water partition coefficient, shake-flask method. The essentials:
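Octanol and water mutually pre-saturated for 24 h; compound ([…] stock in aqueous phase) partitioned against equal volume n-octanol, mixed 15 min, phases separated by centrifugation.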

Data set [5] can be described thus: Luminescence emission spectra and quantum yield. It is filed as physicochemical. The essentials:
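Spectrofluorometric fluorescence/phosphorescence emission spectra of the iridium(III) complexes recorded in CH2Cl2 at room temperature. Quantum yields by the Demas–Crosby relative method on solutions at RT, from integrated emission band areas versus a reference standard of known yield, corrected for solvent refractive index.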

Data set [6] in a line: Emission lifetime measurement. It is filed as physicochemical. The method in brief:
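Emission lifetimes measured by time-correlated single-photon counting (0.5 ns time resolution), excitation from a D2 lamp and a 405 nm pulsed diode laser. Estimated error 5% on lifetime.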

[7] abbreviates: MC3T3, blue light, read-out: GI50.
[8] abbreviates: NIH-3T3, blue light, read-out: GI50.

Read-outs that look alike come from different tables or passages of the source.

In general, GI50 refers to the concentration that inhibits growth by half. Broadly, the Log P is a log measure of how a compound divides between an organic and an aqueous phase. High values mean a more lipophilic compound, low ones a more hydrophilic compound.

`F[P-](F)(F)(F)(F)F.O=C(NCCCn1cc[n+]2[c]1[Ir-3]13([c]4cccc5ccc6ccc[n+]1c6c45)([c]1cccc4ccc5ccc[n+]3c5c14)[n+]1ccccc1-2)[c-]1cccc1.[Fe+2].c1cc[cH-]c1` [IV-i]: the GI50 was 10 µM in data set [1] (setting [7]); 10 µM in data set [1] (MC3T3, dark, read-out: GI50); 17.8 µM in data set [2] (setting [8]). Moreover, the “Photosensitizing index (PI)” value in data set [1] amounted to 1.0; in data set [2], 2.3. Besides, the “λmax (nm) ε (M^−1 · cm^−1)” value in data set [3] was 318 (25600), 413 (7410) nm (M^−1 · cm^−1). Further, the “Log P” value in data set [4] (n-octanol/water, shake-flask, mean of at least three determinations) turned out to be 0.74 ± 0.02. Also, the “ΦP emission phosphorescence quantum yield” value in data set [5] (room temperature, reference POPOP in hexane or rhodamine B in ethanol) turned out to be 0.02%. In data set [6], the τ1 emission lifetime was 205 ns.
On to `F[P-](F)(F)(F)(F)F.O=C(O)CC[C@H](NC(=O)N[C@@H](CCCCNC(=O)CCn1cc[n+]2[c]1[Ir-3]13([c]4cccc5ccc6ccc[n+]1c6c45)([c]1cccc4ccc5ccc[n+]3c5c14)[n+]1ccccc1-2)C(=O)O)C(=O)O` [III-i], for which the GI50 in data set [1] (setting [7]) was 40.6 µM; in data set [1] (MC3T3, dark, read-out: GI50), 250 µM; in data set [1] (in the dark, 72 h, read-out: GI50 MC3T3 Dark) it was 250 µM; in data set [2] (setting [8]), 55.8 µM; in data set [2] (NIH-3T3, dark, read-out: GI50), above 100 µM; in data set [2] (in the dark, 72 h, read-out: GI50 NIH-3T3 Dark), above 100 µM. Besides, the entries for the “Photosensitizing index (PI)” value in data set [1] and in data set [2] were 6.2 and above 1.8, respectively. Moreover, the “λmax (nm) ε (M^−1 · cm^−1)” value in data set [3] is 317 (19830), 412 (5510) nm (M^−1 · cm^−1). Further, the lipophilicity (Log P) in data set [4] came to 0.60 ± 0.01. For the same compound, the λem in data set [5] (CH2Cl2, room temperature, λexc 365 nm or 470 nm) amounted to 548 nm. Also, the τ1 emission lifetime in data set [6] was found to be 227 ns.

Source of the values: patent US20260209260A1, “VECTORIZED NHC IRIDIUM(III) COMPLEXES AND USE THEREOF IN PHOTODYNAMIC THERAPY AND/OR DIAGNOSTIC” (CENTRE NATIONAL DE LA RECHERCHE SCIENTIFIQUE, priority 2022, published 2026).
